According to the supplement of paper PMC10307832:

Experiments:
Experiment in all cases: relative viability (nuclei count vs DMSO), 5 days (fraction); higher = more cells survive
CUDC-101 + Olaparib = compound: C#Cc1cccc(Nc2ncnc3cc(OC)c(OCCCCCCC(=O)NO)cc23)c1 [CUDC-101] + O=C(c1cc(Cc2n[nH]c(=O)c3ccccc23)ccc1F)N1CCN(C(=O)C2CC2)CC1 [Olaparib] (partner 8 µM)
Procedure, shortened: (§1)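 Values are medians from duplicate plates. Each reflects relative viability, defined as the nuclei count of treated wells over that of vehicle wells. Lung cancer cell lines in 1536-well plates were pin-tool dosed one day after seeding with one drug alone or with a fixed anchor-drug dose plus five library-drug doses (not always all listed) in √10 steps, then fixed, stained and imaged at 4× after 5 days.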

NVP-TAE684 + Pictilisib = compound: COc1cc(N2CCC(N3CCN(C)CC3)CC2)ccc1Nc1ncc(Cl)c(Nc2ccccc2S(=O)(=O)C(C)C)n1 [NVP-TAE684] + CS(=O)(=O)N1CCN(Cc2cc3nc(-c4cccc5[nH]ncc45)nc(N4CCOCC4)c3s2)CC1 [Pictilisib] (partner 1 µM)
Procedure, shortened: as §1

NVP-TAE684 + AZD7762 = compound: COc1cc(N2CCC(N3CCN(C)CC3)CC2)ccc1Nc1ncc(Cl)c(Nc2ccccc2S(=O)(=O)C(C)C)n1 [NVP-TAE684] + NC(=O)Nc1cc(-c2cccc(F)c2)sc1C(=O)N[C@H]1CCCNC1 [AZD7762] (partner 0.2 µM)
Procedure, shortened: as §1

Vandetanib + Olaparib = compound: COc1cc2/c(=N/c3ccc(Br)cc3F)nc[nH]c2cc1OCC1CCN(C)CC1 [Vandetanib] + O=C(c1cc(Cc2n[nH]c(=O)c3ccccc23)ccc1F)N1CCN(C(=O)C2CC2)CC1 [Olaparib] (partner 8 µM)
Procedure, shortened: as §1

| Cell Line | relative viability (CUDC-101 + Olaparib; first compound 0.01 µM) | relative viability (CUDC-101 + Olaparib; first compound 0.03162 µM) | relative viability (CUDC-101 + Olaparib; first compound 0.1 µM) | relative viability (CUDC-101 + Olaparib; first compound 0.3162 µM) | relative viability (CUDC-101 + Olaparib; first compound 1 µM) | relative viability (NVP-TAE684 + Pictilisib; first compound 0.2 µM) | relative viability (NVP-TAE684 + Pictilisib; first compound 0.6325 µM) | relative viability (NVP-TAE684 + Pictilisib; first compound 2 µM) | relative viability (NVP-TAE684 + AZD7762; first compound 0.2 µM) | relative viability (NVP-TAE684 + AZD7762; first compound 0.6325 µM) | relative viability (NVP-TAE684 + AZD7762; first compound 2 µM) | relative viability (Vandetanib + Olaparib; first compound 0.02 µM) | relative viability (Vandetanib + Olaparib; first compound 0.06325 µM) | relative viability (Vandetanib + Olaparib; first compound 0.2 µM) | relative viability (Vandetanib + Olaparib; first compound 0.6325 µM) | relative viability (Vandetanib + Olaparib; first compound 2 µM) |
| --- | --- | --- | --- | --- | --- | --- | --- | --- | --- | --- | --- | --- | --- | --- | --- | --- |
| LCLC-97TM1 | 0.452 | 0.4 | 0.368 | 0.446 | 0.437 | 0.112 | 0.145 | 0.148 | 0.283 | 0.2 | 0.194 | 0.374 | 0.377 | 0.357 | 0.352 | 0.343 |
| ABC-1 | 0.908 | 0.767 | 1.14 | 0.922 | 0.424 | 0.546 | 0.493 | 0.298 | 0.917 | 0.524 | 0.472 | 0.538 | 0.617 | 0.774 | 0.904 | 0.726 |
| NCI-H596 | 0.616 | 0.597 | 0.718 | 0.689 | 0.67 | 0.396 | 0.372 | 0.335 | 1.03 | 0.988 | 0.839 | 0.616 | 0.62 | 0.726 | 0.655 | 0.705 |
| PC-14 | 0.273 | 0.317 | 0.295 | 0.165 | 0.0702 | 0.726 | 0.589 | 0.157 | 0.339 | 0.275 | 0.224 | 0.25 | 0.248 | 0.26 | 0.217 | 0.117 |
| H3255 | 0.653 | 0.547 | 0.512 | 0.442 | 0.264 | 0.454 | 0.424 | 0.256 | 0.939 | 0.823 | 0.881 | 0.516 | 0.518 | 0.594 | 0.509 | 0.27 |
| NCI-H441 | 0.628 | 0.556 | 0.679 | 0.572 | 0.479 | 0.515 | 0.459 | 0.321 | 1.12 | 1.04 | 0.598 | 0.498 | 0.576 | 0.646 | 0.658 | 0.616 |
